pIC50, pKd: −log10 of the molar value. The source made the active and inactive calls. No cut-off for these calls is given here.
Experiments:
Egl nine homolog 1 [1] = target: T1, Egl nine homolog 1 (Homo sapiens, UniProt Q9GZT9); test: Displacement of 2OG from catalytic domain of PHD2 (181 to 426) (unknown origin) Zn2 expressed in Escherichia coli at 150 uM
Target sequence in this assay (Q9GZT9 2-426 limits assumed): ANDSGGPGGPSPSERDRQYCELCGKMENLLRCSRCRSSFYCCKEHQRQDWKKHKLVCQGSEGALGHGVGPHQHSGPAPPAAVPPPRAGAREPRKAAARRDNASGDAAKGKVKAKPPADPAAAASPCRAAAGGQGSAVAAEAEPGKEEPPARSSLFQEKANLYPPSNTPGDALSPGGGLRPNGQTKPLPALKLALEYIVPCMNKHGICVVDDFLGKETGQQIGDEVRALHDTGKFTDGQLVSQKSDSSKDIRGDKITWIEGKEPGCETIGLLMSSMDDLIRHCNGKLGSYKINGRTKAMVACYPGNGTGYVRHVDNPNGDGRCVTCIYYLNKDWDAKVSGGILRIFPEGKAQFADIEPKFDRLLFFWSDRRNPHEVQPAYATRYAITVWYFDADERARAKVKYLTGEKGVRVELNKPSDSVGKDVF

Egl nine homolog 1 [2] = target: T1, Egl nine homolog 1; test: Displacement of 2OG from catalytic domain of PHD2 (181 to 426) (unknown origin) Zn2 expressed in Escherichia coli at 400 uM
Target sequence in this assay (Q9GZT9 2-426 limits assumed): as above

Homo sapiens = organism: Homo sapiens; test: (§1) Displacement of 2OG from FIH (unknown origin) expressed in Escherichia coli at 400 uM
Egl nine homolog 1 [3] = target: T1, Egl nine homolog 1; test: Inhibition of human PHD2 catalytic domain (181 to 426) Mn2 expressed in Escherichia coli by NMR spectroscopic analysis
Target sequence in this assay (Q9GZT9 whole entry, the tested form may be a part): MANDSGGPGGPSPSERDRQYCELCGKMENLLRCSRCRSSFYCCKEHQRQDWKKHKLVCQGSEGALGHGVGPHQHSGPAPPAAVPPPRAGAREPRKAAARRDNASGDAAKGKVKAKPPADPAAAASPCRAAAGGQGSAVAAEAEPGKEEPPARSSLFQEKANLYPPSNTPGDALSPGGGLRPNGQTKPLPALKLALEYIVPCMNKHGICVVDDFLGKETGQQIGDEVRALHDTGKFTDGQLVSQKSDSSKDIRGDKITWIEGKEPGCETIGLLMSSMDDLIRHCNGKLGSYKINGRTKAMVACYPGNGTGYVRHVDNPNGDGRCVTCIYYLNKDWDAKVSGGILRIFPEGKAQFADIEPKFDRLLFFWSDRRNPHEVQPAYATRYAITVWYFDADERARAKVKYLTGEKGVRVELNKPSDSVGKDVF

Egl nine homolog 1 [4] = target: T1, Egl nine homolog 1; test: Binding affinity to human PHD2 catalytic domain (181 to 426) Mn2 expressed in Escherichia coli by NMR spectroscopic analysis
Target sequence in this assay (Q9GZT9 whole entry, the tested form may be a part): as above

Egl nine homolog 1 [5] = target: T1, Egl nine homolog 1; test: Inhibition of PHD2 (unknown origin)
Target sequence in this assay (Q9GZT9 whole entry, the tested form may be a part): as above

[6] = target: T2, Lysine-specific demethylase 2A (Homo sapiens) (UniProt Q9Y2K7); test: Displacement of 2OG from FBXL11 (1 to 517) (unknown origin) expressed in Escherichia coli at 800 uM
T2 sequence (whole entry): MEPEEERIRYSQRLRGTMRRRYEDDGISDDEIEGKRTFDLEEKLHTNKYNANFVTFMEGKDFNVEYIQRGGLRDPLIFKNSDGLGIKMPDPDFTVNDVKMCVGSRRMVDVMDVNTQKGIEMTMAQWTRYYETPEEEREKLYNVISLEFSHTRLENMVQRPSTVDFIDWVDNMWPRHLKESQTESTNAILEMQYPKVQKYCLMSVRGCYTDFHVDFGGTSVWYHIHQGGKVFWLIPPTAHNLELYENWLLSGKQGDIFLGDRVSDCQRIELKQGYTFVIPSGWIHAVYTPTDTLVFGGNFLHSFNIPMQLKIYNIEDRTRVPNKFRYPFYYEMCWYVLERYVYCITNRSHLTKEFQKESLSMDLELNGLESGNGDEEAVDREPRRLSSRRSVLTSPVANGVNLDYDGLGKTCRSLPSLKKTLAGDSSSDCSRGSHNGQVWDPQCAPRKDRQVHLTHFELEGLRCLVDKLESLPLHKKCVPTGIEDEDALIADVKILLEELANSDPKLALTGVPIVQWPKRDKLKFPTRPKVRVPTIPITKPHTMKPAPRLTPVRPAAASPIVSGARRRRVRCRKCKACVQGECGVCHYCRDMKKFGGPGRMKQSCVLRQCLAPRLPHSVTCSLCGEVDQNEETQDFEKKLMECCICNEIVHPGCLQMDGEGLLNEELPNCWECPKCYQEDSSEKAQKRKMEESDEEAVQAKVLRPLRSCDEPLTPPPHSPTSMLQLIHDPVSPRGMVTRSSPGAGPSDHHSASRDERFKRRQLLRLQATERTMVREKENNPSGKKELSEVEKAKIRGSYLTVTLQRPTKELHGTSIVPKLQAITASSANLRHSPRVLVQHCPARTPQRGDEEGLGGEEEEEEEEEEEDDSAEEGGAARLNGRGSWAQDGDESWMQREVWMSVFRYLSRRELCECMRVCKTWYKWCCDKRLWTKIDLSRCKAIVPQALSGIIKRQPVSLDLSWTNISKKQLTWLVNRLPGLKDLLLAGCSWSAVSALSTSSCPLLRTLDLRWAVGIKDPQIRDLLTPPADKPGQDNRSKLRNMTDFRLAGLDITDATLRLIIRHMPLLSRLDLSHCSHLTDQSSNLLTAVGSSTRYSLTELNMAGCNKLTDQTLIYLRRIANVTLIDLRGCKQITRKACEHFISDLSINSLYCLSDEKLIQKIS

[7] = Inhibition of human FIH catalytic domain Mn2 expressed in Escherichia coli by NMR spectroscopic analysis
[8] = Binding affinity to human FIH catalytic domain Mn2 expressed in Escherichia coli by NMR spectroscopic analysis
[9] = as §1; conditions: Homo sapiens
Egl nine homolog 1 [10] = target: T1, Egl nine homolog 1; test: Displacement of [13C]-2OG from catalytic domain of PHD2 (181 to 426) (unknown origin) expressed in Escherichia coli
Target sequence in this assay (Q9GZT9 whole entry, the tested form may be a part): as the sequence (Q9GZT9 whole entry, the tested form may be a part) above

For CC(O)C(C)O (stereo unspecified), the inhibition (Egl nine homolog 1 [1]) was “inactive”.

In the case of O=C(O)/C=C/c1ccc(O)c(O)c1, the inhibition (Egl nine homolog 1 [1]) was “inactive”.

Work on O=C(O)CNC(=O)c1ccc(B(O)O)cn1 yielded an inhibition (Egl nine homolog 1 [2]) of 50%.

In the case of O=C(O)CCC(=O)O, the inhibition (Homo sapiens) was “inactive”.

O=C(O)/C=C/C(=O)O [FUMARIC ACID] showed a pIC50 (Egl nine homolog 1 [3]) of 3.66 and a pKd (Egl nine homolog 1 [4]) of 3.70.

For O=C(O)CC(C(=O)O)C(O)C(=O)O (stereo unspecified) [ISOCITRATE], the pIC50 (Egl nine homolog 1 [5]) was < 2.00 and the inhibition (Homo sapiens) was “inactive”.

O=C(O)CNC(=O)C(=O)O [N-OXALYLGLYCINE] showed an inhibition [6] of 30%, a pIC50 [7] of 4.30 and a pKd [8] of 5.40. It also gave an inhibition [9] of 85%.

With O=C(O)CC(O)(CC(=O)O)C(=O)O the inhibition (Homo sapiens) was “inactive”.

With O=C(O)CC(O)C(=O)O (stereo unspecified) the inhibition (Homo sapiens) was “inactive”.

O=C(O)Cc1cs/c(=N\C(=O)CS(=O)(=O)Cc2ccc3ccccc3c2)n1O gave an inhibition [6] of 90%, a pKd (Egl nine homolog 1 [10]) of 6.96 and a pIC50 (Egl nine homolog 1 [3]) of 7.70. The pKd (Egl nine homolog 1 [4]) was 7.00.

For O=C(O)c1ccc(O)c(O)c1, the inhibition (Egl nine homolog 1 [1]) was “inactive”.

For O=C(O)c1ccnc(C(=O)O)c1, the inhibition [6] was 70%.

With O=C(O)CNC(=O)c1nc(Cl)c2ccccc2c1O the inhibition [6] was “inactive”, the pIC50 [7] was < 4.60 and the pKd [8] was 3.85. It also gave an inhibition [9] of 55%.

With O=C(c1ccccc1)c1ccc(O)c(O)c1 the inhibition (Egl nine homolog 1 [1]) was “inactive”.

In the case of CCOC(=O)c1ccc(O)c(O)c1, the inhibition (Egl nine homolog 1 [1]) was “inactive”.

Work on O=C(O)c1ccc(O)c2ncccc12 yielded an inhibition [6] of 65%, a pIC50 [7] of 4.70 and a pKd [8] of 4.52. It also gave an inhibition [9] of 75%.

With Oc1ccccc1O the inhibition (Egl nine homolog 1 [1]) was “inactive”.

— ChEMBL document CHEMBL2311536 (J Med Chem, 2013)
